The text below walks through data of patent US20110301102A1, “COMPOSITIONS AND METHODS FOR TREATING MYELODYSPLASTIC SYNDROME” (Telik, Inc., priority 2010, published 2011).

Data set [1] deals with patients with MDS (IPSS low and intermediate-1 risk). As to the kind of experiment: Clinical study of Telintra (ezatiostat hydrochloride) in patients with MDS, two dosing schedules. Conditions: for patients with significant RBC transfusion reduction: 5 of 11 patients.
Experimental: Eighty-seven patients were randomized and treated at 23 investigational sites. After initial dose ranging in 14 patients, two dose levels were selected for further study. Subsequently, 37 patients were treated at 3 grams daily for two weeks followed by a one week rest period, and 36 patients were treated at 2 grams daily for three weeks followed by a one week rest period. The data on these 73 patients was pooled for this preliminary analysis.
The median age was 72 years, with a patient population distribution of International Prognostic Scoring System (IPSS) low risk (23 patients, 32%) and intermediate-1 risk (50 patients, 68%).
Data set [2] shares this test system. Conditions: one patient (Quddus et al.); cited from earlier work.

SMILES strings stand for the structures.

For `CCOC(=O)[C@@H](N)CCC(=O)N[C@@H](CSCc1ccccc1)C(=O)N[C@@H](C(=O)OCC)c1ccccc1` [Telintra®, ethyl (2S)-2-amino-5-[[(2R)-3-benzylsulfanyl-1-[[(1R)-2-ethoxy-2-oxo-1-phenylethyl]amino]-1-oxopropan-2-yl]amino]-5-oxopentanoate], in data set [1] (1 g b.i.d. (2 grams per day) 3 weeks on & 1 week off), the “Duration of HI-E Response, Median (95% CI)” value is reported as 46.1 (10.0-46.1) Weeks. In data set [1] (1.5 g b.i.d. (3 grams per day) 2 weeks on & 1 week off), the “Duration of HI-E Response, Median (95% CI)” value is 18.4 (3.1-51.0) Weeks. In addition, the “patients achieving RBC transfusion independence” value in data set [1] (4 of 38 RBC transfusion-dependent patients, pooled) is recorded as 11%. Besides, the “patients with clinically significant RBC transfusion reductions (reduction of 4 U/8 weeks, IWG 2006)” value in data set [1] (11 of 38 RBC transfusion-dependent patients, pooled) was found to be 29%. Besides, in data set [1] (all patients treated), the “effect of prior DMTI treatment on GI adverse events” value is “increased incidence of GI AEs”; the “incidence of diarrhea, Grade 1” value worked out at 25%; the “incidence of diarrhea, Grade 2” value is on record as 7%; the “incidence of diarrhea, Grade 3” value was 3%. For the same molecule, in data set [1] (all patients treated), the “incidence of nausea, Grade 1” value amounted to 45%; the “incidence of nausea, Grade 2” value is 16%; the “incidence of nausea, Grade 3” value was 1%; the “incidence of vomiting, Grade 1” value is listed as 30%. In data set [1] (all patients treated), the “incidence of vomiting, Grade 2” value worked out at 12% and the “incidence of vomiting, Grade 3” value stood at 2%. Besides, the “number of cytogenetic complete responses” value in data set [1] (all patients, pooled) is recorded as “three”. For the same molecule, the “effect of prior Revlimid treatment on HI-E response” value in data set [1] (logistic regression analysis) is recorded as “enhance HI-E response”. Besides, the “change in the odds for a HI-E response with prior DMTI treatment” value in data set [1] (logistic regression analysis, p=0.023) is listed as “five-fold decrease”. Further, the “patients with significant RBC transfusion reduction” value in data set [1] (no prior Revlimid, no prior DMTI) came to 45%. Also, the “number of patients with complete cytogenetic response” value in data set [1] (of the four patients with del 5q minus) is on record as “two”. Further, the “patients achieving transfusion independence” value in data set [1] (prior Revlimid, no prior DMTI, 3 of 11 patients) is 27%. For the same molecule, in data set [1] (prior Revlimid, no prior DMTI), the “patients with significant RBC transfusion reduction” value amounted to 45%. Moreover, the “duration of complete remission following discontinuation of therapy” value in data set [2] is “more than 12 months”.
